# Literature values, collected in patent US20220000907A1, “MOUTHWASH/GARGLE, NASAL/ORAL/NASAL SPRAY COVID AND BACTERIOCIDE ARRANGEMENT” (priority 2020, published 2022).
# What was measured:
# [1] = tested on: all seven classes of viral organisms
# microbes = conditions: 1.0% PVPI solution gives 0.1% available iodine
substance,measurement,setting,value
polyvinylpyrrolidone iodine [PVPI],effectiveness against all classes of viruses (I-VII),[1]; PVPI in solution,effective
same,inactivation of all classes of viruses,[1]; effective concentration of 0.1% available iodine,inactivated
same,most effective antimicrobial concentration of PVPI (peak of bell curve of microbial killing),microbes,1%
